# Measured values published in US8080497B2, “Method of controlling the aquatic weed Hydrilla verticillata” (BASF SE, priority 2005, dated 2011).
# Test system: Hydrilla verticillata
# Test: Greenhouse container test, static exposure of Hydrilla verticillata in water columns
# Type: in vivo
# Details: for Hydrilla Shoot Length: static exposure, 11 WAT, control 30.4 cm
# Experimental: To begin the experiment, PVC cylinders were filled and maintained with a volume of 4000 ml of dechlorinated water that was maintained at room temperature (24° C.). To each cylinder, an established Hydrilla verticillata plant (potted in sand mixture) was transferred into the water column. Hydrilla plants were selected for uniformity and length of shoot growth (approx 15 cm). Plants were allowed to equilibrate in the columns for 24 hrs prior to herbicide treatment. Experimental treatments included an untreated control, and imazamox at 50 and 100 ppb of actual acid equivalent of herbicide. Treatments were applied to water columns by the use of a pipette. Amount of herbicide applied was based on the total volume of the cylinders (4000 ml). After initial herbicide treatment, the water columns were gently stirred to ensure uniform distribution. Treatments were arranged as a completely random design with 3 replications. Each cylinder was considered the experimental unit. Greenhouse conditions were maintained at 24/18° C. (day/night) cycle for the duration of the experiment. Natural day length was supplemented with halogen lighting to provide a 14 h photoperiod. Water level in the cylinders was periodically checked and maintained at the 4000 ml level for the duration of the study. After 11 weeks of exposure, Hydrilla shoot lengths were measured to ascertain herbicide effects.
smiles,measurement,setting,value
"COCc1cnc(C2=NC(C)(C(C)C)C(=O)N2)c(C(=O)O)c1 (racemic) [Imazamox, (RS)-2-(4-isopropyl-4-methyl-5-oxo-2-imidazolin-2-yl)-5-methoxymethylnicotinic acid]",effect on the growth of Hydrilla,after the exposure period (11 weeks),significant effect
same,visual symptomology,"after the exposure period (11 weeks), intensity tended to be rate responsive","reduction in plant vigour, chlorosis and reduction of internodal length"
same,Hydrilla Shoot Length,rate 50 ppb,18.5 cm
same,Hydrilla Shoot Length,rate 100 ppb,12.3 cm
